Experiments:
[1] = system: mRNA expressed from the genes (A) to (D) in rat liver; assay: Behavior of genes (mRNA expression level, oligo-DNA microarray) in rat liver after 28-day oral administration; format: in vivo; conditions: mRNA vs vehicle control group
In short: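 Liver mRNA levels were compared with matched vehicle groups, with a shift of at least 1.5-fold up or down deemed significant unless its direction disagreed with other carcinogens. Test substances were dosed orally by gavage daily for 28 days to 5-week-old male F344 rats, four per group.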

liver = conditions: classification of the substance (Cr+/Cr−); cited from earlier work
rodent = conditions: classification of the substance (C+/C−); cited from earlier work
[2] = classification of the substance (M+/M−); cited from earlier work
[3] = gene group (A), Unigene No. Rn.167075
[4] = gene group (C), Unigene No. Rn.120914

In the case of `CCOC(=O)C(C)(C)Oc1ccc(Cl)cc1` [TS001, Clofibrate], the “Behavior of gene caused by administration of chemical substance, Gene No. 4846” value ([1]; gene group (A), Unigene No. Rn.144554) is reported as “−”, the “Behavior of gene caused by administration of chemical substance, Gene No. 2026” value [1, 3] is reported as “+” and the “Behavior of gene caused by administration of chemical substance, Gene No. 4218” value [1, 3] is reported as “−”. For the same compound, the “Behavior of gene caused by administration of chemical substance, Gene No. 6182” value ([1]; gene group (A), Unigene No. Rn.5834) was “+”, the “Behavior of gene caused by administration of chemical substance, Gene No. 5600” value ([1]; gene group (A), Unigene No. Rn.9836) was “−” and the “Behavior of gene caused by administration of chemical substance, Gene No. 1494” value ([1]; gene group (B), Unigene No. Rn.1430) was “+”. The “Behavior of gene caused by administration of chemical substance, Gene No. 2045” value ([1]; gene group (B), Unigene No. Rn.19329) was “+”, the “Behavior of gene caused by administration of chemical substance, Gene No. 2203” value ([1]; gene group (B), Unigene No. Rn.21240) was “+” and the “Behavior of gene caused by administration of chemical substance, Gene No. 533” value ([1]; gene group (C), Unigene No. Rn.106184) was “+”. For the same compound, the “Behavior of gene caused by administration of chemical substance, Gene No. 725” value ([1]; gene group (C), Unigene No. Rn.108075) was “+”, the “Behavior of gene caused by administration of chemical substance, Gene No. 1163” value ([1]; gene group (C), Unigene No. Rn.11766) was “+” and the “Behavior of gene caused by administration of chemical substance, Gene No. 4973” value ([1]; gene group (C), Unigene No. Rn.118529) was “+”. The “Behavior of gene caused by administration of chemical substance, Gene No. 4095” value ([1]; gene group (C), Unigene No. Rn.119024) was “+”, the “Behavior of gene caused by administration of chemical substance, Gene No. 1334” value [1, 4] was “−” and the “Behavior of gene caused by administration of chemical substance, Gene No. 6620” value [1, 4] was “−”. The “Behavior of gene caused by administration of chemical substance, Gene No. 6303” value ([1]; gene group (C), Unigene No. Rn.123063) was “−”, the “Behavior of gene caused by administration of chemical substance, Gene No. 5878” value ([1]; gene group (C), Unigene No. Rn.143213) was “−” and the “Behavior of gene caused by administration of chemical substance, Gene No. 1131” value ([1]; gene group (C), Unigene No. Rn.144946) was “−”. The “Behavior of gene caused by administration of chemical substance, Gene No. 1562” value ([1]; gene group (C), Unigene No. Rn.14744) was “−”, the “Behavior of gene caused by administration of chemical substance, Gene No. 1741” value ([1]; gene group (C), Unigene No. Rn.1647) was “−” and the “Behavior of gene caused by administration of chemical substance, Gene No. 893” value ([1]; gene group (C), Unigene No. Rn.164817) was “+”. For the same compound, the “Behavior of gene caused by administration of chemical substance, Gene No. 6026” value ([1]; gene group (C), Unigene No. Rn.167685) was “−”, the “Behavior of gene caused by administration of chemical substance, Gene No. 154” value ([1]; gene group (C), Unigene No. Rn.185941) was “−” and the “Behavior of gene caused by administration of chemical substance, Gene No. 1993” value ([1]; gene group (C), Unigene No. Rn.18728) was “−”. The “Behavior of gene caused by administration of chemical substance, Gene No. 813” value ([1]; gene group (C), Unigene No. Rn.201760) was “+”, the “Behavior of gene caused by administration of chemical substance, Gene No. 2494” value ([1]; gene group (C), Unigene No. Rn.23969) was “−” and the “Behavior of gene caused by administration of chemical substance, Gene No. 2546” value ([1]; gene group (C), Unigene No. Rn.24561) was “−”. For the same compound, the “Behavior of gene caused by administration of chemical substance, Gene No. 3776” value ([1]; gene group (C), Unigene No. Rn.43232) was “−”, the “Behavior of gene caused by administration of chemical substance, Gene No. 3929” value ([1]; gene group (C), Unigene No. Rn.4620) was “−” and the “Behavior of gene caused by administration of chemical substance, Gene No. 1119” value ([1]; gene group (C), Unigene No. Rn.9757) was “−”. The “Behavior of gene caused by administration of chemical substance, Gene No. 6742” value ([1]; gene group (C), Unigene No. Rn.9779) was “+”, the “Behavior of gene caused by administration of chemical substance, Gene No. 5634” value ([1]; gene group (C), Unigene No. Rn.9862) was “−” and the “Behavior of gene caused by administration of chemical substance, Gene No. 5726” value ([1]; gene group (D), Unigene No. Rn.9939) was “−”. For the same compound, the Liver carcinogenicity (liver) was “Cr+”, the Carcinogenicity (rodent) was “C+” and the “Mutagenicity by Ames test” value [2] was “M−”.
